Laboratory results as given in PubChem BioAssay AID602239 (National Center for Advancing Translational Sciences (NCATS), 2012).

System: mouse liver microsomes with NADPH, LC-MS/MS
Assay: qHTS for Activators of Human alpha-Glucosidase as a Potential Chaperone Treatment of Pompe Disease: Metabolic Stability in presence of NADPH
Conditions: at 5 µM; hits give high values (more stable)
From the text: Alpha-glucosidase is responsible for hydrolysis of terminal, non-reducing 1,4-linked alpha-D-glucose residues with release of alpha-D-glucose. It is a lysosomal hydrolase that is required for the degradation of a small percentage (1-3%) of cellular glycogen in human. Deficiency of this enzyme results in glycogen-storage disease type II (GSDII), also referred to as Pompe disease, an autosomal recessive disorder. Structurally normal glycogen is accumulated in lysosomes and cytoplasm in affected patients, primarily in muscle tissues. Excessive glycogen storage within lysosomes may interrupt normal functioning of other organelles and leads to cellular injury. In turn, this leads to enlargement and dysfunction of the entire organ involved (eg, cardiomyopathy and muscle weakness). It has reported that the improper folding and trafficking of alpha-glucosidase resulting from the genetic mutations may account for a significant number of Pompe patients. […] We optimized this alpha-glucosidase assay in 1536-well plate format for identifying the novel small molecule inhibitors with the structures other than the sugar analogs in order to develop the new pharmacological chaperones. Mouse liver microsomes are created through broken up endoplasmic reticulum from mouse liver. These liver microsomes contain many drug metabolizing enzymes, such as Cytochome P-450s and flavin-containing monooxygenases. […] NIH Chemical Genomics Center [NCGC] NIH Molecular Libraries Probe Production Centers Network [MLPCN] MLPCN Grant: MH084841 Assay Submitter (PI): Wei Zheng
5uM of compound is incubated with mouse liver microsome; the reference compounds are verapamil and warfarin. Compounds are incubated and samples are analyzed with LC-MS/MS.

| percent remaining (higher = more stable) | SMILES |
| --- | --- |
| 63% | CCCN1CNc2c(c(=O)[nH]c(=S)n2Cc2ccc(OC)c(OC)c2)C1 |
| 4% | CCCN1CNc2c(c(=O)[nH]c(=S)n2CCc2ccc(OC)c(OC)c2)C1 |
| 2% | CCCN1CNc2c(c(=O)[nH]c(=S)n2CCc2cccc(Cl)c2Cl)C1 |
